Experimental data from patent US20260328779A1, “METHODS AND COMPOSITIONS FOR THE DIAGNOSIS AND TREATMENT OF IGA NEPHROPATHY” (Beth Israel Deaconess Medical Center, Inc., priority 2022, published 2026).

Tests used:
[1] = tested on: anti-Tn IgM; assay: Inhibition of anti-Tn antibody binding to Tn glycopeptide array; design: species or system human; conditions: glycomimetic 20 mM, 30 min at RT, anti-Tn antibodies C3
Method: The Tn glycopeptide microarray was prepared as previously described^77. Briefly, the glycopeptides printed on the microarray is as listed (FIG. 2). Purified anti-Tn antibodies (diluted to […] for IgM, and […] for IgG and IgA detection) in TSM binding buffer (20 mM Tris-HCl, pH 7.4, 150 mM NaCl, 2 mM CaCl2), 2 mM MgCl2, with 1% BSA and 0.05% Tween-20) were added to the respective array slides for 1 h at RT. Alexa Fluor #488-labeled goat anti-human IgM or goat anti-human IgG, or FITC-labeled goat anti-human IgA antibody at 1:400 dilution in TSM binding buffer was used for detection of IgM, IgG, and IgA within purified anti-Tn antibodies. Slides were analyzed on a Genepix^# 4300A microarray scanner (Molecular Devices). Images were analyzed with quantitation software (GenePix® Pro Microarray Analysis Software Ver. 7, Molecular Devices). For inhibition assay, a purified Tn(+)IgA1 produced from CosmcKO Dakiki cells was utilized (See Generation of CosmcKO Dakiki cells using CRISPR-Cas9 system for generating the antibody) to inhibit anti-Tn antibodies binding to microarray and Tn(−)IgA1 produced from Dakiki cells as a […]. Purified anti-Tn antibodies (Cl, 10 mg/ml) in TSM binding buffer was preincubated with 1 mg of purified Tn(+)IgA1, or Tn(−)IgA1 for 30 min at RT. […] Heat map and correlation map of binding preferences were analyzed using GLAD (Glycan Array Dashboard).

[2] = tested on: anti-Tn CICs; assay: ELISA based glycomimetic inhibition assay (anti-Tn CICs binding to IgA1 glycopeptide); design: species or system human; conditions: ID18 with ID19 as baseline, serial dilution (1/3) starting at 10 mM
Method: IgA1 glycopeptides (ID18, or ID19 as listed in FIG. 2, 0.01 mg/well) were immobilized using immobilization buffer (NaHCO3/Na2CO3, pH 9.6) in a 96-well plate (Thermo Fisher Scientific, PolySorp) overnight at 4° C. The plate was washed 3× with TSM containing 0.05% tween-20 (TSMT) and added 5% (w/v) BSA in TSMT for 1 h at RT. The plate was incubated with 1 mg/ml of purified anti-Tn CICs from IgAN serum (P3, and pooled with P1-P10; Pmix) or healthy donors (C3, and pooled C1-C10; Cmix) in TSMT containing 0.5% BSA for 1 h at RT. The plate was washed 3× with TSMT and incubated for 1 h with HRP-conjugated goat anti-human IgM at 1:1,000 dilution in TSMT containing 0.5% BSA at RT. The plate was washed 3× with TSMT and developed using TMB substrate solution (Cat #ab171523, Abcam) for 30 min, and the reaction was stopped with 1N HCl. Absorbance (450 nm) was read on an ImageXpress #Pico (Molecular Devices). The half-maximal inhibitory concentration (IC50) was calculated with GraphPad Prism 6.0 (GraphPad Software, Inc.) after subtraction from ID19 as a baseline. For inhibition assay, purified anti-Tn CICs were preincubated with a serial dilution (1/3) of α-methylGalNAc or DiαGalNAc (starting at 10 mM) for 30 min at RT.

[3] = tested on: primary human renal mesangial cells; assay: Inhibition of anti-Tn CICs-stimulated mesangial cell proliferation (Ki-67); type: cell-based; conditions: anti-Tn CICs purified from IgAN patients pretreated with 100 mM compound, 30 min at RT
Method: […] of serum was mixed with […] of Tn(+)matrix beads or mock beads overnight at 4° C. (10 rpm). Supernatant was collected after pelleting the beads at 500×g for 30 sec at 4° C. After two rounds of such sequential anti-Tn CICs immunodepletion (serum-ID) and its control (serum-Mock), collected serum was filtered by syringe filter unit (Cat #SLHP033RS, Millipore Sigma) before use. Cells were cultured at ~90% confluency in 96-well plate, and starved in Mesangial cell media (Cat #4201) with 0.5% FBS (Cat #0010) and 0.05× mesangial cell growth supplement (MsCGS, Cat #4252) from ScienCell for 24 h at 37° C. prior to stimulation. Cells were stimulated with 5% serum-Mock, 5% serum-ID with or without exogenous anti-Tn CICs (50 ng/[…]/well, total) for 24 h at 37° C. incubator. Cells were fixed with 4% PFA with 0.05% Triton-X-100 in PBS for 20 min at 4° C. Fixed cells were blocked with 5% (vol/vol) goat serum in PBS for 1 h at 4° C., and incubated with anti-Ki-67 antibody (SP6, rabbit IgG, Cat #CRM325B, Biocare Medical, diluted to 1:50) in PBS for 1 h at 4° C. Cells were washed 3× with chilled PBS, and incubated with Alexa Fluor #488-goat anti-rabbit IgG (Cat #A27034, Thermo Fisher Scientific) at 1:400 in PBS for 1 h at 4° C. in the dark. Cells were washed 3× with chilled PBS, and stained with DAPI (diluted to 0.1 mM) in PBS for 10 min at RT, and analyzed using a microscope (AMG EVOS FL digital inverted microscope, Fisher Scientific, ×400 magnification). For inhibition assay, anti-Tn CICs was preincubated with 100 mM α-methylGalNAc, or α-methylGlcNAc in PBS for 30 min at RT. Serum from three healthy controls (C3, C6, and pooled C1-C10; Cmix) and three IgAN (P5, P10, and pooled P1-P10; Pmix) were used in this assay. […] of serum with IgAN (P1-P20) or healthy control (C1-C20) was analyzed on SDS-PAGE gel, and stained with Coomassie.

| Structure (SMILES) | inhibition of anti-Tn antibody (IgM) binding to Tn glycopeptide array [1] | inhibition of anti-Tn CICs binding to IgA1 glycopeptide [2] | inhibition of anti-Tn CICs binding to IgA1 glycopeptide ([2]; listed as Di αGalNAc) | inhibition of proliferative activity of anti-Tn CICs from IgAN patients toward mesangial cells [3] |
| --- | --- | --- | --- | --- |
| CC(=O)N[C@H]1[C@@H](OCCSCCO[C@H]2O[C@H](CO)[C@H](O)[C@H](O)[C@H]2NC(C)=O)O[C@H](CO)[C@H](O)[C@@H]1O [DiαGalNAc, α-D-2-Ethylthio 2-acetamido-galactopyranosyl α-D-2-Ethylthio 2-acetamido-galactopyranoside] | higher inhibition compared to α-methylGalNAc | A higher inhibition of anti-Tn CICs binding | specifically inhibits the binding of anti-Tn CICs to IgA1 glycopeptide |  |
| CO[C@H]1O[C@H](CO)[C@@H](O)[C@H](O)[C@H]1NC(C)=O [α-methylGlcNAc, reference compound] |  |  |  | did not inhibit the mesangial cell proliferation |
